This is an account of results in US6395499B1, “Methods of identifying modulators of a DP prostaglandin receptor” (Merck Frosst Canada & Co., priority 1995, dated 2002).

Bounds are passed on as bounds.

The target of test [1] is T1, human prostaglandin D2 (DP) receptor (Homo sapiens, UniProt Q13258).
T1 construct: The full length coding cDNA was constructed as follows; expressed in transfected cells
T1 sequence (Q13258 1-359): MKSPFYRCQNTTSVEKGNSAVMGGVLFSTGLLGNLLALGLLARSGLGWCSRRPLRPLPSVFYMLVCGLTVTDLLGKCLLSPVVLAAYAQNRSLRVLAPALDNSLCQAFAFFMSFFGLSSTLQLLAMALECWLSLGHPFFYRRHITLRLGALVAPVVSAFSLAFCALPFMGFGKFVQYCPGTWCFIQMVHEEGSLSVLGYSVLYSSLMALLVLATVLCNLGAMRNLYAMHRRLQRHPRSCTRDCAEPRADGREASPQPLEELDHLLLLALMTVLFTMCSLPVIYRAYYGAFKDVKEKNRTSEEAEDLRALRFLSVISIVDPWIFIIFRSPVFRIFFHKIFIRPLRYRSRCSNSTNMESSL
Description: cAMP assay in HEK293 (EBNA) cells stably expressing the DP receptor. Format: cell-based. As to conditions: for EC50: 15 min at 37° C., 100 μM RO-20-1724, read-out: EC50, increase in intracellular cAMP production; for cAMP production: concentrations up to 1 μM. The protocol:
FIG. 5—Increases in intracellular cAMP production in HEK293 (EBNA) cells stably expressing the DP receptor is shown. cAMP assays were performed as described in Example 7. The pmoles of cAMP produced per 1.5×10^5 cells at each ligand concentration was determined for PGD2 (n), the DP receptor agonist BW245C (●), the DP antagonist BW868C (♦), PGE2 (▴), PGE1 ( ? ), PGF2α (▾), iloprost (□) and the TP-receptor agonist U46619 (∘), over a concentration range up to 1 μM.
The recently cloned human prostaglandin D2 (DP) receptor was subcloned into the pCEP4 plasmid (Invitrogen) and transfected into HEK293 (EBNA) cells by the cationic liposome-mediated transfer of DNA using LipofectAMINE™ (Gibco/BRL) reagent. Cells were maintained in culture for 48 h post transfection and then trypsinized, diluted and replated in the presence 200 μg/ml hygromycin B (Calbiochem) to select for transfected cells. Cells were maintained under selection for 3 weeks to ensure a homogeneous population of cells expressing the DP receptor.
(§1) Increases in intracellular cAMP production following agonist challenge was performed in HEK293 (EBNA) cells expressing the DP receptor and control HEK293 (EBNA) cells. Cells were harvested at approximately 80% confluence by incubation in enzyme-free cell dissociation buffer (Gibco/BRL), washed once with HEPES-buffered Krebs-Ringer solution {1.25 mM MgSO4, 1.5 mM CaCl2, 5 mM KCl, 124 mM NaCl, 8 mM glucose, 1.25 mM KH2PO4, and 25 mM HEPES/KOH (pH 7.4)} and resuspended in the same buffer. The cAMP assay was performed in a final volume of 0.2 ml of HEPES-buffer Krebs-Ringer solution and 100 μM of the phosphodiesterase type IV inhibitor RO-20-1724 (Biomol), to prevent hydrolysis of cAMP. RO-20-1724 and the compounds under evaluation were added to the incubation mixture in dimethyl sulfoxide or ethanol to a final vehicle concentration 0.35% (v/v) which was kept constant in all samples. The reaction was initiated by the addition of 1.5×10^5 cells per incubation. Samples were incubated at 37° C. for 15 min and the reaction was then terminated by immersing the samples in boiling water for 3 minutes. Cell viability was always ≧96% as determined by trypan blue exclusion. Measurement of cAMP was performed by radioimmunoassay using [^125I]cAMP (Amersham International).

Test [2] has as its target T1, human prostaglandin D2 (DP) receptor. Description: [3H]PGD2 specific binding assay, membranes of pcDNA3-hDP transfected COS-M6 cells. As to conditions: 0.87 nM [3H]PGD2, 60 min at 30° C., pH 7.0, read-out: Ki, competition for [3H]PGD2 specific binding. How it is done: FIG. 3—Competition for [^3H]PGD2 specific binding to pcDNA3-hDP transfected COS-M6 membranes. [^3H]PGD2 binding assays were performed as described in Example 6. The percentage maximum [^3H]PGD2 specific binding at each competing ligand concentration was determined for PGD2 (▪), the DP receptor agonist BW245C (●), the DP antagonist BW868C (♦), PGE2 (▴), PGF2a (▾), iloprost (□) and the TP-receptor agonist U46619 (∘), over a concentration range up to 100 μM.
The recently cloned human prostaglandin D2 (DP) receptor was subcloned into the pcDNA3 plasmid (Invitrogen) and transfected into COS-M6 cells by the cationic liposome-mediated transfer of DNA using LiofectAMINE reagent (GIBCO/BRL). The cells were maintained in culture for 72 h, then harvested and membranes prepared by differential centrifugation (1000×g for 10 min, then 100,000×g for 30 min) following lysis of the cells by nitrogen cavitation. [^3H]PGD2 specific binding assays were performed in 10 mM BES adjusted to pH 7.0 with KOH and containing 1.0 mM EDTA, 10 mM MnCl2, 0.87 nM [^3H]PGD2 and […] of protein from the 100,000×g membrane fraction. Incubations were conducted for 60 min at 30° C. prior to separation of the bound and free radioligand by rapid filtration through Whatman GF/B filters presoaked at 4° C. in washing buffer (10 mM BES/KOH (pH 7.0) containing 0.01% (w/v)bovine serum albumin). The filters were washed with approximately 16 ml of washing buffer and the residual [^3H]PGD2 bound to the filter was quantified by liquid scintillation counting. Specific binding was defined as the difference between total binding and non-specific binding, determined in the presence of 1 mM PGD2.
The cloned human DP receptor was transfected into COS-M6 cells and [^3H]PGD2 binding assays were performed with membranes prepared from the transfected cells. […] The rank order of affinity for prostaglandins and related synthetic analogs at the human DP receptor was therefore: BW245C>PGD2>BW868C>PGE2>PGF2a=iloprost>U46619. This rank order of potency has been predicted for the DP receptor from previous pharmacological studies.

Test [3] relates to control HEK293 (EBNA) cells. Description: cAMP assay in control HEK293 (EBNA) cells. Format: cell-based. As to conditions: 1 μM; for cAMP production in control cells: control HEK293 (EBNA) cells. How it is done: as §1
On the technique in general: cAMP levels reflect the balance of adenylyl cyclase and phosphodiesterase activity.

The target of test [4] is T2, DP receptor (Homo sapiens, UniProt Q13258).
T2 construct: The full length coding cDNA was constructed as follows; expressed in transfected cells
T2 sequence (Q13258 1-359): T1 sequence (Q13258 1-359)
Description: Intracellular calcium [Ca2+]i assay in DP-HEK293 (EBNA) stable cell line. Format: cell-based. Further details: [Ca2+]i upon ionophore challenge at end of experiment (viability check): dose or concentration left out as unconfirmed. As to conditions: for calcium mobilization [Ca2+]i: DP-expressing HEK293 (EBNA) cells. The protocol: FIG. 4—Increases in intracellular calcium [Ca^2+]i in HEK293 (EBNA) cells stably expressing the DP receptor is shown. DP-HEK293 (EBNA) cells were harvested and prepared as described in Example 8. […] At the end of each experiment cells were challenged with 1 μM ionomycin to release [Ca^2+]i followed by quenching of the [Ca^2+]i release with 1 mM EDTA.
(§2) Intracellular calcium [Ca^2+]i measurements were performed with both the DP-HEK293 (EBNA) stable cell line and control HEK293 (EBNA) cells. The cells were harvested with enzyme-free cell dissociation buffer, recovered by centrifugation at 300×g for 5 min at 22° C. and resuspended at 2×10^6 cells/ml in DMEM growth medium without G418 or hygromycin B. The cells were incubated at 37° C., 6% CO2 for 45 min with 2 μM fura-2 AM. Unincorporated fura-2 AM was removed by three washes in HBSS (1.3 mM CaCl2, 5 mM KCl, 0.3 mM KH2PO4, 0.9 mM MgCl2, 138 mM NaCl, 4 mM NaHCO3, 0.3 mM Na2HPO4, 5.6 mM D-glucose) by centrifugation at 300×g, for 5 min at 22° C. The cells were then resuspended at a final concentration of 10^6 cells/ml in HBSS. [Ca^2+]i was measured following agonist challenge of 2*10^6 fura-2 AM loaded cells using a Perkin-Elmer LS-5 spectrophotometer essentially as described (Chan et al., 1994, Journal of Pharmacology and Experimental Therapeutics 269(3): 891-896).

In test [5] the test system is control HEK293 (EBNA) cells. Description: Intracellular calcium [Ca2+]i assay in control HEK293 (EBNA) cells. The class given is cell-based. As to conditions: 1000 nM. How it is done:
as §2
For orientation: Calcium flux is commonly read through the fluorescence of an indicator in the cells.

Usually EC50 stands for the concentration at which the effect is half-maximal. As usually defined, the Ki is a dissociation constant, usually derived from enzyme kinetics or from competition with a known ligand. In the case of `CC#CCC(C)[C@H](O)/C=C/[C@@H]1[C@H]2C/C(=C/CCCC(=O)O)C[C@H]2C[C@H]1O` (stereo partly drawn) [iloprost], the EC50 in test [1] was greater than 500 nM. Besides, in test [2], the Ki worked out at 630 nM.
As for `CCCCC[C@H](O)/C=C/[C@@H]1[C@@H](C/C=C\CCCC(=O)O)[C@H]2CO[C@@H]1C2` [U46619], the Ki in test [2] is roughly 1850 nM.
Turning to `CCCCC[C@H](O)/C=C/[C@H]1[C@H](O)CC(=O)[C@@H]1C/C=C\CCCC(=O)O` [PGE2], in test [2], the Ki is 101 nM. Further, in test [3], the “fold less cAMP in control cells than in similarly challenged DP-expressing cells” value is listed as 14 fold and the “cAMP production in control cells” value is on record as 6 pmoles/1.5×10^5 cells.
In test [1], `O=C(O)CCCCCCC1C(=O)N(Cc2ccccc2)C(=O)N1NCC(O)C1CCCCC1` (stereo not drawn) [BW868C] came in with a cAMP production of 20 pmol cAMP/1.5×10^5 cells. Also, in test [2], the Ki was 1.7 nM.
Take `CCCCC[C@H](O)/C=C/[C@H]1C(=O)C[C@H](O)[C@@H]1C/C=C\CCCC(=O)O` [PGD2, Prostaglandin D2]: the “calcium mobilization [Ca2+]i” value in test [4] (10 to 1000 nM) is on record as “increased calcium mobilization”. The “calcium mobilization [Ca2+]i” value in test [4] (concentrations below 10 nM, versus vehicle) is “failed to induce a response”. Further, the “change in [Ca2+]i in control cells” value in test [5] is listed as “did not provoke any change”. Further, in test [1], the “fold less potent than BW245C (cAMP EC50)” value was found to be 10 fold, the EC50 turned out to be 6.4 nM and the cAMP production was greater than 140 pmol cAMP/1.5×10^5 cells. Also, in test [2], the Ki was 1.1 nM.
In the case of `CCCCC[C@H](O)/C=C/[C@@H]1[C@@H](C/C=C\CCCC(=O)O)[C@@H](O)C[C@H]1O` [PGF2a], the Ki in test [2] amounted to 512 nM.
For the compound `C[C@H](CCC(=O)O)C[C@H](C)C[C@H](C)C(=O)/C=C(\O)[C@H](C)C[C@H](C)C/C=C/[C@@H](C)[C@@H](O)[C@@H](C)[C@@H](O)C[C@@H]1CC[C@@](C)([C@H]2CC[C@@](C)([C@@H](C)O)O2)O1` [ionomycin], in test [4], the “[Ca2+]i upon ionophore challenge at end of experiment (viability check)” value was “large increase in [Ca^2+]i”.
On to `O=C(O)CCCCCCC1C(=O)NC(=O)N1CCC(O)C1CCCCC1` (stereo not drawn) [BW245C], for which, in test [1], the EC50 worked out at 0.6 nM. Also, the Ki in test [2] was 0.9 nM.
Regarding `CCCCC[C@H](O)/C=C/[C@H]1[C@H](O)CC(=O)[C@@H]1CCCCCCC(=O)O` [PGE1], in test [3], the “fold less cAMP in control cells than in similarly challenged DP-expressing cells” value is on record as 14 fold and the “cAMP production in control cells” value was 6 pmoles/1.5×10^5 cells.
